How the values were obtained:
[1] = test system: phosphorylation of Ser15 of p53 (ATM and ATR); assay: p53 Ser15 phosphorylation in RKO cells treated with synoviolin siRNA, with or without caffeine (Western blotting); format: cell-based, human; details: caffeine 10 mM, both 12 h and 24 h after the addition, FIG. 5
Experimental: RKO cells (human colon cancer cells), which had been confirmed to express wild-type p53, were seeded on a 60 mm plate at 1.0×10^5 cells/plate/2 mL), and were transfected with siRNA oligonucleotides against GFP and synoviolin, using Oligofectamine. After 72 h, caffeine (10 mM), an inhibitor of ATM (ataxia-telangiectasia mutated) and ATR (an ATM and Rad3-related), which are important in the phosphorylation of […], was added. Then, Western blotting was performed using Phospho-p53 ([…]), an antibody to the phosphorylated […]-p53.

[2] = test system: T1, synoviolin (MBP-Syno ΔTM-His), substrate GST-p53 (Homo sapiens); assay: in vitro ubiquitination reaction of GST-p53 by MBP-Syno ΔTM-His (Western blot, anti-p53 FL393); format: biochemical; details: 75, 150, 300 or 600 μM compound; FIG. 17B
T1 construct: GST-SynoΔTM 236-617:pGEX-5-1/S ΔTM; His tag (C); made in house; host or cells: E. coli
T1 sequence (Q86TM6 236-617 E545G): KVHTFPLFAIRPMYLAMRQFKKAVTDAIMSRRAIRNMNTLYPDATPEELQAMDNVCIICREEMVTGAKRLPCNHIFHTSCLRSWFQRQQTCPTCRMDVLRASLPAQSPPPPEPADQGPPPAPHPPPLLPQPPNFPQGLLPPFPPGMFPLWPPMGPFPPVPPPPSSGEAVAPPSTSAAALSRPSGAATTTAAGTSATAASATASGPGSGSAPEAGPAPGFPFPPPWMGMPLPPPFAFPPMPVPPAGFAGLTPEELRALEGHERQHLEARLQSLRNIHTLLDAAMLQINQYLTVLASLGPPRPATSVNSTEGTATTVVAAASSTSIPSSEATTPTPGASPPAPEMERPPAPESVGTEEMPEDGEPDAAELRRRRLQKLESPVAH
Experimental: E. coli (BL21) hosting pGEX/p53 was cultured in 500 mL of LB medium. After induction with IPTG (1 mM at 30° C. for 6 h), an extract was prepared from the culture solution, using buffer containing 0.5% NP-40. From the E. coli extract, GST-p53 was purified using a GSH-Sepharose resin in the presence of 0.1% NP-40. […] After the reaction, proteins were separated by 7.5% SDS-PAGE, and transferred onto a PVDF membrane, prior to detection of the p53 protein on the membrane using anti-p53 antibodies (FL393 or DO-1). Reaction and detection were performed with variations in the amount of GST-p53 added.
In the presence of GST-p53, varying concentrations (75 μM, 150 μM, 300 μM, or 600 μM) of compounds X and Y were added to the in vitro ubiquitination reaction system using MBP-Syno ΔTM-His. After reaction, proteins were separated by 7.5% SDS-PAGE, transferred onto a PVDF membrane, and then detected using the anti-p53 antibody FL393 (Santa Cruz Biotechnology).

[3] = test system: rheumatoid arthritis synovial cells (RASCs); assay: suppression of RASC proliferation (MTT); format: cell-based; details: Synovial cell, after 72 h of culture, FIGS. 23 and 24, read-out: IC50, RASC cell survival
Experimental: The low molecular weight compounds termed No. 32 (Compound X) and No. 38 (Compound Y) were used as specimens. HFLS-RA medium (Cell Applications Inc.; Code CA40405) was used for RASC. RASCs were seeded in a 96-well microtiter plate at 1,000 cells/well, and cultured for 24 h in DMEM containing 10% fetal bovine serum (Kohjin Bio). Then, twofold serial dilutions of the specimens, beginning from a final concentration of 50 μM, were added to the cells. After 1, 24, and 48 h, 3-(4,5-dimethylthiazol-2-yl)-2,5-diphenyltetrazoliumbromide (MTT) was added to a final concentration of 0.5 mg/mL. After 2 h, the medium was aspirated, and the remaining formazan was dissolved with 50 μL of dimethyl sulfoxide. Then, absorbances at […] were measured. The absorbances of the group treated with the specimens were used to calculate cell survival rates, with 0% representing the absorbance of the group without cells or specimen, and 100% representing the absorbance of the group without specimen.

RKO cells = assay: cytotoxicity / cell survival rate in RKO cells (WST-8); format: cell-based, human; details: cultured 24-72 h with compound, FIG. 18
Experimental: RKO cells (a human colon carcinoma cell line; ATCC: CRL-2577) were seeded in Eagle's Minimum Essential Medium containing 10% fetal bovine serum in a 96-well microtiter plate (Falcon; non-coated) at 1,000 cells/100 μL/well, and cultured for 24 h. Compounds X and Y were dissolved in Eagle's Minimum Essential Medium containing 10% fetal bovine serum, and 10 μL amounts were added to wells. The cells were then cultured for 24-72 h.
After culture, WST-8 (2-(2-methoxy-4-nitrophenyl)-3-(4-nitrophenyl)-5-(2,4-disulfophenyl)-2H-tetrazolium, monosodium salt) was added to each well. After 2-4 h, absorbances at 450 nm were measured (reference wavelength: […]) and cell survival rates were calculated (FIG. 18).
The calculation method was based on the following formula: […]

p53 protein = p53 protein expression level in RKO cells (Western blotting); format: cell-based, human; details: 5, 10 or 20 μM, 24 h, FIG. 19
Experimental: Fractions of homogenized cells were prepared from various cells using a cell homogenizing solution (50 mM Tris-HCl [pH 8.0], 150 mM NaCl, 1% NP40, 1 mM PMSF, 0.1% sodium dodecyl sulfate (SDS), 2 μg/mL leupeptin, 2 μg/mL aprotinin, and 2 μg/mL pepstatin). Then, fractions of homogenized cells were separated by SDS-PAGE. After SDS-PAGE, the cell-derived proteins were transferred onto a nitrocellulose (NC) membrane by an electroblotting method. This NC membrane was blocked with Tris buffered saline (TBS) with 5% skim milk at room temperature for 1 h, and then immunoreacted with anti-p53 antibody C-terminal aa; 195-393 or FL393, both of which were diluted in TBS with 5% skim milk, at room temperature for 1 h. The NC membrane after reaction was washed with 0.1% Tween 20/TBS, and then immunoreacted with horse radish peroxidase (HRP)-labeled anti-rabbit IgG antibody as secondary antibody, at room temperature for 1 h. The membrane was washed with 0.1% Tween 20/TBS, and HRP activity was sought to detect the target antigen. An ECL kit (Amersham) was used to detect HRP activity […]).
RKO cells were treated with compound Y, and changes in p53 protein expression level were examined by Western blotting. Specifically, RKO cells were seeded in 10 cm plates at 5.0×10^5 cells/plate, and cultured for 24 h. […]

synoviolin and p53 mRNA = assay: mRNA levels of synoviolin and p53 in RASCs under synoviolin RNAi (TaqMan); format: cell-based; details: 25 nM siRNA, cultured 4 d, 18S rRNA as control, FIG. 14
Experimental: RASCs were seeded on a 10 cm dish at 30,000 cells/dish, and were transfected with 25 nM of siRNA (No. 589) according to a routine method. The cells were then cultured for 4 d. During this period, cells were collected overtime to obtain mRNA. Random primers were used, with 1 μg of mRNA as a template, to perform reverse transcription reactions, and cDNAs were obtained. The obtained cDNAs were quantified using the ABI TaqMan Gene expression assay (GEX). The mRNA levels were calculated using 18S rRNA as control.
The GEX reagent target assay no. (Assay ID) is Hs00381211_m1 for synoviolin and Hs00153340_m1 for p53.

RA synovial cells = assay: cell cycle of RA synovial cells after synoviolin siRNA (flow cytometer); format: cell-based; details: 25 nM siRNA, FIG. 7
Experimental: RA synovial cells were seeded on a 10 cm dish at 9.0×10^4 cells/dish, and were transfected with synoviolin siRNA (final concentration 25 nM). Then, the cell cycle was monitored by flow cytometer.

Cn1c(=O)c2c(ncn2C)n(C)c1=O [caffeine] was tested, and the “inhibition of the siRNA-enhanced phosphorylation of p53 Ser15” value [1] was “completely inhibited”.

COc1ccc(/C=N/Nc2nc(Nc3ccc([N+](=O)[O-])cc3)nc(N3CCN(C)CC3)n2)cc1OC [compound X] was tested, and the “inhibition of the GST-p53 ubiquitination reaction” value [2] was “inhibited the GST-p53 ubiquitination reaction in a concentration-dependent manner”, the IC50 [3] was 20 µM and the “cell proliferation / cell survival rate of RKO cells” value (RKO cells) was “cell proliferation was suppressed”.

For CN(C)c1nc(N/N=C/c2cc([N+](=O)[O-])ccc2O)nc(Nc2ccc(F)cc2)n1 [compound Y], the “p53 protein expression level” value (p53 protein) was “increased”, the “inhibition of the GST-p53 ubiquitination reaction” value [2] was “inhibited the GST-p53 ubiquitination reaction in a concentration-dependent manner” and the IC50 [3] was roughly 6 µM. The “cell proliferation / cell survival rate of RKO cells” value (RKO cells) was “cell proliferation was suppressed”.

In the case of “h589: double-stranded RNA in which sense strand SEQ ID NO: 18 and antisense strand SEQ ID NO: 19 are annealed; synoviolin siRNA (sense GGUGUUCUUUGGGCAACUGTT; antisense CAGUUGCCCAAAGAACACCTT; chemistry not given here)”, the “level of p53 mRNA” value (synoviolin and p53 mRNA) is reported as “unchanged”, the “level of synoviolin mRNA” value (synoviolin and p53 mRNA) is reported as “decreased” and the cell cycle (RA synovial cells) is reported as “delay in the cell cycle at the G0/G1 phase”.

— patent US20080305102A1, “Therapeutic Agent for Cancer Comprising Substance Capable of Inhibiting Expression or Function of Synoviolin as Active Ingredient and Screening Method for the Therapeutic Agent for Cancer” (priority 2005, published 2008)
